Measurements from patent US10919896B2, “Preparation and uses of pyrimidinone derivatives” (Cancer Research Technology Limited, priority 2016, dated 2021).

Assays:
[1] = test system: Cdc7 (pS40MCM2 levels in HCT116 cells); assay: Cdc7 Cell Pharmacodynamics Assay Method 2A: pS40MCM2 levels in HCT116 cells, 6 hours; assay type: cell-based; details: Homo sapiens, HCT-116, read-out: Biomarker Method 2A (pEC50) (converted)
Description: (§1) This protocol describes a method to investigate the inhibition of Cdc7 activity by measuring pS40MCM2 levels in cells, after treatment with compounds.
(§2) • HCT116 cells (ATCC, #CCL-247) • McCoys 5A with L-glutamine (Cellgro, #10-050-CV) • 10% FCS (Cellgro, #35-010-CV) • D-PBS without CaCl2 and MgCl2 (Cellgro, #21-031-CV) • Trypsin/EDTA (Cellgro, #25-052-CL) • BSA (Calbiochem, 126593) • Cell Extraction Buffer (Invitrogen FNN0011) • Protease inhibitor cocktail (Sigma P-2714) • PMSF 0.3M stock in DMSO (Sigma P7626) • Antibody-rabbit pMCM2 Ser40 (Abcam, AB133243) • Antibody-goat MCM2 (Bethyl #A300-122A) • Antibody-goat Anti Rabbit IgG HRP (Thermo, 31462) • SuperSignal ELISA Pico Chemiluminescent Substrate (Perbio Science UK Ltd 37069) • 10×PBS (Growcells, MRGF-6236) • Triton X100 (Sigma, P-T8787) • DMSO (Fisher, D128-1) • 2-Propanol (J. T. Baker, 9095-03) Method • Seed 1×10^6 HCT116 cells into each of two 175 cm^2 flask containing 30 mL Cell Growth Media and incubate at 37° C., 5% CO2 for 3 days. • Harvest the cells from one T175 cm^2 flask and count. • Dilute with Cell Growth Media to a cell density of 2×10^5. Dispense 100 μL to each well (20,000 HCT116 cells/well) of TC treated 96-well plate(s). • Allow cells to settle overnight in incubator set at 37° C. and 5% CO2. • Cell treatment: Transfer 0.25 μL/well from the compound plate to the wells of the cell plate(s). This is a 1:400 dilution of compound in the assay. • Once all cells are treated place the cells back to the incubator and incubate for either 6 hours (Method 2A) or 18 hours (Method 2B). • Dilute the capture antibody (total MCM2#A300-122A) 1 in 250 in the required volume of PBS (5 mL per assay plate, plus 5 mL for dead volume) and add 50 μL to each well of a Hybond plate except wells A12 & B12. Seal the plate and incubate at room temperature for a minimum of 2 hours. • Defrost aliquot of Invitrogen Cell Extraction Buffer (FNN0011) on ice and supplement with appropriate volume of both Sigma protease inhibitor cocktail (P-2714) and PMSF (final conc 1 mM from a 1 M stock in DMSO). • After the 6 hour or 18 hour cell treatment time, tap out the media from the assay plates and place them in the −70° C. freezer for at least 5 minutes. • Flick out the remaining liquid in the previously prepared capture Ab plate(s) and add 200 μL 2% BSA per well. Incubate for 1 hour at room temperature. • Remove plates from freezer and add 20 μL of ice cold complete lysis buffer. Incubate cells for 30 minutes at 4° C. • Add 30 μL per well 2% BSA • At the end of the 1 hour incubation, wash the Capture/ELISA plate(s) with Wash Buffer on the BioTek plate washer. • Transfer 40 μL per well of the lysis plate(s) to the same wells in the Capture/ELISA plate. Incubate cells overnight at 4° C. • At the end of the overnight incubation, wash the ELISA plate(s) with Wash Buffer on BioTek plate washer. • Prepare Detection Antibody Buffer and dispense 50 μL to all wells of ELISA plate(s) except wells G1 & H1. Cover plate and incubate at room temperature for 2 hours with gentle shaking. • At the end of the 2 hour incubation, wash the ELISA plate(s) with Wash Buffer on the BioTek plate washer. • Prepare the Conjugated Antibody Buffer and dispense 50 μL to all wells of ELISA plate(s). • Cover the plate and incubate at room temperature for 1 hour with gentle shaking. • At the end of the 1 hour incubation, wash the ELISA plate(s) with Wash Buffer on the BioTek plate washer. • Prepare Substrate Buffer and dispense 50 μL to all wells of ELISA plate(s). • Incubate for a minimum of 10 minutes and read plates on the EnVision 2100 Multilabel Reader (Mirror: Luminescence (404) & Luminescence 700 (212); Measurement Height: 6.5 mm; Measurement Time: 0.2 s). Method 3

Cdc7/Dbf4 = Cdc7/Dbf4 (Homo sapiens, UniProt O00311); assay: Cdc7 Biochemical Assay Method 3: Cdc7/Dbf4 Enzyme TR-FRET Assay measuring pS40MCM2; details: 1 μM ATP, read-out: Biochemical Method 3 (pIC50) (converted)
Procedure, shortened: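 2.5 nM Cdc7/Dbf4 incubated with 100 nM biotinylated MCM2-derived peptide and 1 μM ATP, 120 minutes at 25° C. Phospho-S40 detected by TR-FRET using anti-pS40 Mcm2 antibody, terbium anti-rabbit secondary and streptavidin-Alexa Fluor488.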

[2] = test system: Cdc7 (pS40MCM2 levels in HCT116 cells); assay: Cdc7 Cell Pharmacodynamics Assay Method 2B: pS40MCM2 levels in HCT116 cells, 18 hours; assay type: cell-based; details: Homo sapiens, HCT-116, read-out: Biomarker Method 2B (pEC50) (converted)
Description: as §1, §2

[3] = test system: Cdc7 (pS53MCM2 levels in SW48 cells); assay: Cdc7 Cell Pharmacodynamics Assay Method 3: pS53MCM2 levels in SW48 cells, 6 hours; assay type: cell-based; details: Homo sapiens, SW48, 6 h, read-out: Biomarker Method 3 (pEC50) (converted)
Description: This protocol describes a method to investigate the inhibition of Cdc7 activity by measuring pS53MCM2 levels in cells, after treatment with compounds.
• SW48 cells • RPMI 1640 (Sigma, R5886) • 10% FCS (Sera Laboratories International Ltd, EU000F Batch:108005) • 100× L-Glutamine (Invitrogen, 25030-024) • D-Glucose Solution (10%) (Sigma, G8644) • HEPES Buffer Solution (Sigma, 83264) • Sodium Pyruvate (Sigma, S8636) • PBS (Fisger, BP399-4) • Trypsin/EDTA (Invitrogen 25300-054) • 2% BSA in PBS • Cell Extraction Buffer (Invitrogen FNN0011) • Protease inhibitor cocktail (Sigma P-2714) • PMSF 0.3M stock in DMSO (Sigma P7626) • Antibody-rabbit pMCM2 Ser53 (Bethyl #A300-756A) • Antibody-goat MCM2 (Bethyl #A300-122A) • Antibody-goat Anti Rabbit IgG HRP (Perbio Science UK Ltd 31462) • SuperSignal ELISA Pico Chemiluminescent Substrate (Perbio Science UK Ltd 37070) Method • Plate 30,000 SW48 cells per well in standard TC treated 96 well plate in 100 μL complete RPMI 1640 medium. • Allow cells to settle overnight in incubator set at 37° C. and 5% CO2. • Cell treatment: prepare a 384 well plate containing 80 μl PBS/well. The PBS should be at room temperature—to be referred to as intermediate plate. Transfer 2 μL of compound from mother plate to intermediate (daughter plate) 1:40 dilution, then 5 μL intermediate to cell (daughter) plate. • Once all cells are treated place the cells back to the incubator and incubate for 6 hours. • Dilute the capture antibody (total MCM2#A300-122A) 1 in 250 in the required volume of PBS (5 mL per assay plate, plus 5 mL for dead volume) and add 50 μL to each well of a Hybond plate. Seal the plate and incubate at room temperature for a minimum of 2 hours. • Defrost aliquot of Invitrogen Cell Extraction Buffer (FNN0011) on ice and supplement with appropriate volume of both Sigma protease inhibitor cocktail (P-2714) and PMSF (final conc 1 mM from a 1 M stock in DMSO). • After the 6 hour cell treatment time, tap out the media from the assay plates and place them in the −80° C. freezer for at least 5 minutes. • Remove plates from freezer and add 20 μL of ice cold complete lysis buffer, with the multidrop. Incubate cells for 30 minutes at 4° C. • Add 80 μL per well 2% BSA. • Flick out the remaining liquid from the capture plate and transfer 80 μL from the lysis plate to the same wells in the capture/ELISA plate, using the Biomek. Cover with plate seal and incubate plates overnight at 4° C. • Wash plates with PBS, remove any residual remaining liquid and add 50 μL per well of pMCM2 Ser53 antibody (#A300-756A) diluted 1 in 100 in 2% BSA. Cover plate and incubate at room temperature for 2 hours with gentle shaking. • Wash plates with PBS, remove any residual remaining liquid and Incubate with 50 μL goat anti rabbit antibody (1 in 800 dilution in 2% BSA), for 1 hour at room temperature. • Wash plates with PBS, remove any residual remaining liquid and add 50 μL mixed SuperSignal Pico substrate. • Incubate each plate for 5 minutes at room temperature shielding the plates from direct light (with a cover plate). Read plates with the luminescent detection.

Chain of Cdc7/Dbf4 (O00311 whole entry): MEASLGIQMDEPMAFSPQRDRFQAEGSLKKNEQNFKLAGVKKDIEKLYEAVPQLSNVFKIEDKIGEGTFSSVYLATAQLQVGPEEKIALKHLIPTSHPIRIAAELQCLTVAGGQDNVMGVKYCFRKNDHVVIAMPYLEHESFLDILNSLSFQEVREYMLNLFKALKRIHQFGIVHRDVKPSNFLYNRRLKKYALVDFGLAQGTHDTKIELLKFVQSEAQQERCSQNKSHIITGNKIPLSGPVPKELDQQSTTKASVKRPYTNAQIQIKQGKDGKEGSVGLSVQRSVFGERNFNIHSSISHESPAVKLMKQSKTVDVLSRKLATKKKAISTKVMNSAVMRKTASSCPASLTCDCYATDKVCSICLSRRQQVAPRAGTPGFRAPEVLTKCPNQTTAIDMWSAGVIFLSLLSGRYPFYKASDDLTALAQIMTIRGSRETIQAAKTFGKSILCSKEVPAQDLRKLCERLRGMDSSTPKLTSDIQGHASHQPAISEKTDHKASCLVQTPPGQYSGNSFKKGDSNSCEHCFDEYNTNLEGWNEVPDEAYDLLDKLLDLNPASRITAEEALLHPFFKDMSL
Chain of Cdc7/Dbf4 (Q9UBU7 whole entry partner): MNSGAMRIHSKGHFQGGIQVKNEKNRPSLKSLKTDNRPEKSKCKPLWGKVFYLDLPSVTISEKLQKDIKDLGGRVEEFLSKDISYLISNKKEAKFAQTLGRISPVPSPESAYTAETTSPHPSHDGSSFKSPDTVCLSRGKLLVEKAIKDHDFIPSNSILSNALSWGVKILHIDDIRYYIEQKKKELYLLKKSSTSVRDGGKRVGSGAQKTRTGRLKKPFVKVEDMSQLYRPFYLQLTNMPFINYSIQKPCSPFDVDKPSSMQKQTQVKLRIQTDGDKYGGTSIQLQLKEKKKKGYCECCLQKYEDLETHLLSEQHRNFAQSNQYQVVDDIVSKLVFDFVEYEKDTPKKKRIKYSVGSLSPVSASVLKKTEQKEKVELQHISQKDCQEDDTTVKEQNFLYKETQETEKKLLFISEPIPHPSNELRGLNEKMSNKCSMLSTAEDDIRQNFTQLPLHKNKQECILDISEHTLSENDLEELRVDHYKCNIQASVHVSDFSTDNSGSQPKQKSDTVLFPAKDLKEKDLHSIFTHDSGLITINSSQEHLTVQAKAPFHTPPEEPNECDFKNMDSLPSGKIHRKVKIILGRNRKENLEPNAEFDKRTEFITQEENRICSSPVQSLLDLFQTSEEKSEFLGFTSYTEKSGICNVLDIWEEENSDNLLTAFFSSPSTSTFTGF

SMILES | EC50 [1] [nM] | IC50 (Cdc7/Dbf4) [nM] | EC50 [2] [nM] | EC50 [3] [nM]
NC1CN(c2nc(-c3ccnc(F)c3)[nH]c(=O)c2Cl)CCC1F (mixture of isomers) [Compound 252] | 38 | 0.617 |  | 
C[C@H]1CN[C@@H](C(F)(F)F)CN1c1nc(-c2ccnc(F)c2)[nH]c(=O)c1Cl (racemic) [Compound 378, Cis-5-chloro-2-(2-fluoro-4-pyridyl)-4-[2-methyl-5-(trifluoromethyl)piperazin-1-yl]-1H-pyrimidin-6-one] |  | 5.89 | 437 | 2090
O=c1[nH]c(-c2ccnc(F)c2)nc(N2C3CCC2COC3)c1Cl [Compound 192] | 89.1 | 0.813 | 49 | 
CC[C@@H]1CN(c2nc(-c3ccnc(F)c3)[nH]c(=O)c2Cl)CCO1 [Compound 205] | 275 | 1.41 |  | 
O=c1[nH]c(-c2ccnc(F)c2)nc(N2CCC3CCNCC32)c1Cl (stereo not shown) [Compound 221] | 1620 | 2.88 | 562 | 
O=c1[nH]c(-c2ccnc(F)c2)nc(N2CCC3NCCCC32)c1Cl (stereo not shown) [Compound 223] | 56.2 | 2.88 | 47.9 | 
O=c1[nH]c(-c2ccnc(F)c2)nc(N2CCC3NCCC32)c1Cl (stereo not shown) [Compound 243] | 288 | 2 |  | 
O=c1[nH]c(-c2ccnc(F)c2)nc(N2C3CCC2CNC3)c1Cl [Compound 262] |  | 0.851 | 19.5 | 347
C[C@@H]1CCCN1c1nc(-c2ccnc(F)c2)[nH]c(=O)c1Cl [Compound 279] |  | 0.724 | 57.5 | 1320
O=c1[nH]c(-c2ccnc(F)c2)nc(N2CCOCC(F)(F)C2)c1Cl [Compound 286] |  | 0.229 | 15.5 | 513
C[C@H]1CNCCN1c1nc(-c2ccnc(F)c2)[nH]c(=O)c1Cl [Compound 326] | 40.7 | 0.49 |  | 
C[C@@H]1COCCN1c1nc(-c2ccnc(F)c2)[nH]c(=O)c1Cl [Compound 328] | 3.89 | 0.575 |  | 
C[C@H]1COCCN1c1nc(-c2ccnc(F)c2)[nH]c(=O)c1Cl [Compound 333] | 347 | 1.23 | 87.1 | 
CC1(C)COCCN1c1nc(-c2ccnc(F)c2)[nH]c(=O)c1Cl [Compound 339] |  | 0.479 | 10.7 | 110
CC1(C)CNCCN1c1nc(-c2ccnc(F)c2)[nH]c(=O)c1Cl [Compound 358] |  | 1.15 | 2.45 | 89.1

The remaining lines, values ahead:

EC50 [1] [nM] | IC50 (Cdc7/Dbf4) [nM] | EC50 [2] [nM] | EC50 [3] [nM] | SMILES
148 | 0.513 |  |  | N[C@@H]1CCCCN(c2nc(-c3ccnc(F)c3)[nH]c(=O)c2Cl)C1 [Compound 183, 4-[(3R)-3-aminoazepan-1-yl]-5-chloro-2-(2-fluoro-4-pyridyl)-1H-pyrimidin-6-one 2,2,2-trifluoroacetic acid]
170 | 1.74 |  |  | N[C@H]1CCCCN(c2nc(-c3ccnc(F)c3)[nH]c(=O)c2Cl)C1 [Compound 188]
741 | 0.708 |  |  | O=c1[nH]c(-c2ccnc(F)c2)nc(N2CCNCC(O)C2)c1Cl (stereo not shown) [Compound 190]
72.4 | 1.91 |  |  | CN[C@@H]1CCCN(c2nc(-c3ccnc(F)c3)[nH]c(=O)c2Cl)C1 [Compound 196]
316 | 2.4 |  |  | CN[C@H]1CCCN(c2nc(-c3ccnc(F)c3)[nH]c(=O)c2Cl)C1 [Compound 197]
363 | 2.95 |  |  | O=C1CCCN(c2nc(-c3ccnc(F)c3)[nH]c(=O)c2Cl)CC1 [Compound 203]
 | 0.0977 | 39.8 | 562 | O=c1[nH]c(-c2ccnc(F)c2)nc(N2CCCNCC2)c1Cl [Compound 206]
2000 | 1.02 | 977 |  | CC(=O)NC1CCN(c2nc(-c3ccnc(F)c3)[nH]c(=O)c2Cl)CC1 [Compound 232]
38.9 | 1.38 |  |  | O=C1CCN(c2nc(-c3ccnc(F)c3)[nH]c(=O)c2Cl)CC1 [Compound 234]
1120 | 1.2 |  |  | N[C@@H]1CN(c2nc(-c3ccnc(F)c3)[nH]c(=O)c2Cl)CC[C@H]1O [Compound 235]
339 | 0.646 |  |  | O=C1CNCCN(c2nc(-c3ccnc(F)c3)[nH]c(=O)c2Cl)C1 [Compound 412, 1-[5-chloro-2-(2-fluoro-4-pyridyl)-6-oxo-1H-pyrimidin-4-yl]-1,4-diazepan-6-one 2,2,2-trifluoroacetic acid]
